Assay results: the supplement of paper PMC10011410

Columns and labels:
U-2 OS [1] = assay: AUC of culture confluence over time (live-cell imaging) (AUC (confluence % x time)); higher = more confluent culture (less growth inhibition)
Protocol: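 Live-cell Incucyte imaging of U-2 OS cells in F-12K medium. Compounds were tested mostly at 5, 10 and 20 uM, and cells were imaged every 4 h for up to 60 h. Value is the area under the curve of phase-contrast confluence over time.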

U-2 OS [2] = assay: relative cell count vs DMSO (cell painting) (fraction of DMSO control); higher = more cells remaining (less cytotoxic); details: 24 h
Protocol: (§1)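 Cell painting in U-2 OS cells (384-well, about 1,500 cells per well), compound exposure 24 h, usually six 2-fold concentrations from 20 to 0.625 uM (some compounds higher or lower). Relative cell count is the cell number per well relative to DMSO wells. Activity score is the Mahalanobis distance of the morphological profile from DMSO control wells. Mean of four technical replicate plates.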

U-2 OS [3] = assay: cell painting activity score (Mahalanobis distance from DMSO wells); higher = stronger morphological phenotype; details: 24 h
Protocol: as §1

Row | Compound | AUC of culture confluence over time (U-2 OS [1]; 5 µM) | AUC of culture confluence over time (U-2 OS [1]; 10 µM) | AUC of culture confluence over time (U-2 OS [1]; 20 µM) | relative cell count (U-2 OS [2]; 0.625 µM) | relative cell count (U-2 OS [2]; 1.25 µM) | relative cell count (U-2 OS [2]; 2.5 µM) | relative cell count (U-2 OS [2]; 5 µM) | relative cell count (U-2 OS [2]; 10 µM) | relative cell count (U-2 OS [2]; 20 µM) | cell painting activity score (U-2 OS [3]; 0.625 µM) | cell painting activity score (U-2 OS [3]; 1.25 µM) | cell painting activity score (U-2 OS [3]; 2.5 µM) | cell painting activity score (U-2 OS [3]; 5 µM) | cell painting activity score (U-2 OS [3]; 10 µM) | cell painting activity score (U-2 OS [3]; 20 µM)
1 | O=C(O)C1=CC(=C(c2ccc(O)c(C(=O)O)c2)c2ccc(O)c(C(=O)O)c2)C=CC1=O | 54.3 | 48.2 | 54 | 0.992 | 0.98 | 0.986 | 0.968 | 0.965 | 0.954 | 3.58 | 3.35 | 3.92 | 4.33 | 5.68 | 5.78
2 | C[n+]1ccc(-c2cc[n+](CCCCCCCCCC[P+](c3ccccc3)(c3ccccc3)c3ccccc3)cc2)cc1.[I-].[I-].[I-] | 45.2 | 40 | 37.1 | 0.908 | 0.96 | 1 | 1.01 | 0.965 | 0.969 | 3.81 | 4.65 | 5.16 | 5.04 | 3.72 | 4.7
3 | COc1cc([C@@H]2c3cc4c(cc3[C@H](O)[C@H]3COC(=O)[C@H]23)OCO4)cc(OC)c1OC | 15.2 | 15.6 | 20.8 | 0.209 | 0.195 | 0.195 | 0.199 | 0.187 | 0.179 | 23.6 | 24.1 | 23.9 | 21 | 21 | 22
4 | CC1(C)[C@@H](O[C@H]2O[C@H](C(=O)O)[C@@H](O)[C@H](O)[C@H]2O[C@@H]2O[C@H](C(=O)O)[C@@H](O)[C@H](O)[C@H]2O)CC[C@]2(C)[C@H]3C(=O)C=C4[C@@H]5C[C@@](C)(C(=O)O)CC[C@]5(C)CC[C@@]4(C)[C@]3(C)CC[C@@H]12.N | 50.8 | 48.2 | 51 | 1 | 0.993 | 0.972 | 0.982 | 1 | 1.03 | 4.09 | 5.25 | 5.85 | 3.67 | 3.06 | 3.66
5 | CN1C(=O)[C@]23CC4=CC=C[C@H](O)[C@H]4N2C(=O)[C@@]1(CO)SS3 | 7.79 | 7.52 | 8.46 | 0.197 | 0.0207 | 0.0068 | 0.0047 | 0.00462 | 0.00499 | 17.6 | 31.2 | 35.5 | 29.6 | 26.9 | 36.5
6 | CS(=O)(=O)OCCCCOS(C)(=O)=O | 49.5 | 47.2 | 49.5 | 0.959 | 0.863 | 0.85 | 0.682 | 0.679 | 0.295 | 3.32 | 4.51 | 5.59 | 7.16 | 6.02 | 10
7 | Cc1[nH]c2ccccc2c1CCNCc1ccc(/C=C/C(=O)NO)cc1 | 16.7 | 19.5 | 21 | 0.494 | 0.472 | 0.445 | 0.466 | 0.474 | 0.419 | 16.3 | 16 | 15.9 | 15.3 | 13.8 | 16.2
8 | CN1C(=O)[C@@]23C[C@]4([C@]56C[C@@]78SS[C@@](CO)(C(=O)N7[C@H]5Nc5ccccc56)N(C)C8=O)c5ccccc5N[C@@H]4N2C(=O)[C@]1(CO)SS3 | 9.52 | 13.4 | 13.8 | 0.176 | 0.0258 | 0.0235 | 0.0282 | 0.0283 | 0.0118 | 16.3 | 21.7 | 17.3 | 16.4 | 7.82 | 14
9 | CC(C)=C[C@@H]1CO[C@]23C[C@]4(CO2)[C@H](CC[C@@H]2[C@@]5(C)CC[C@H](O[C@@H]6OC[C@H](O)[C@H](O[C@@H]7O[C@H](CO)[C@@H](O)[C@H](O)[C@H]7O)[C@H]6O[C@@H]6O[C@@H](CO)[C@H](O)[C@H]6O)C(C)(C)[C@@H]5CC[C@]24C)[C@H]3[C@@]1(C)O | 44.4 | 15.8 | 23.9 | 0.956 | 0.977 | 1.02 | 0.762 | 0.393 | 0.0257 | 4.86 | 4.19 | 6.77 | 9.86 | 22.5 | 29.1
